Test results from the NIST ThermoML archive (doi:10.1016/j.jct.2018.12.021).
± gives the expanded uncertainty stated by the source.

Experiment: mn = molality of the nth substance listed, in mol/kg
Conditions: for electrical conductivity / mass density: 100 kPa, Liquid; for electrical conductivity: Direct current cell with electrodes; for mass density: Vibrating tube method; for surface tension liquid-gas: Ring tensiometer

CCCCCCCCCCCC[n+]1ccsc1.[Br-] [N-dodecylthiazolium bromide] + O
Conditions | electrical conductivity, 293.15 K [S/m] | electrical conductivity, 298.15 K [S/m] | electrical conductivity, 303.15 K [S/m] | mass density, 293.15 K [kg/m3] | mass density, 298.15 K [kg/m3] | surface tension liquid-gas, 303.15 K [mN/m]
m1 = 0.00122 | – | – | – | 998.24 ± 1.6 | 997.08 ± 1.6 | –
m1 = 0.00157 | 0.0131 ± 0.00091 | 0.0147 ± 0.001 | 0.0164 ± 0.0011 | 998.27 ± 1.6 | 997.1 ± 1.6 | 60.2 ± 1.9
m1 = 0.00191 | – | – | – | 998.29 ± 1.6 | 997.12 ± 1.6 | –
m1 = 0.00201 | 0.017 ± 0.0011 | 0.0189 ± 0.0012 | 0.0209 ± 0.0014 | 998.3 ± 1.6 | 997.13 ± 1.6 | 57.03 ± 1.8
m1 = 0.00258 | – | – | – | 998.33 ± 1.6 | 997.16 ± 1.6 | –
m1 = 0.00299 | 0.0246 ± 0.0016 | 0.0276 ± 0.0017 | 0.0305 ± 0.0019 | 998.36 ± 1.6 | 997.19 ± 1.6 | 53.96 ± 1.7
m1 = 0.00326 | – | – | – | 998.38 ± 1.6 | 997.21 ± 1.6 | –
m1 = 0.00407 | 0.033 ± 0.0023 | 0.0365 ± 0.0025 | 0.0402 ± 0.0028 | 998.43 ± 1.6 | 997.26 ± 1.6 | 49.57 ± 1.6
m1 = 0.00429 | – | – | – | 998.45 ± 1.6 | 997.28 ± 1.6 | –
m1 = 0.00507 | 0.0421 ± 0.0027 | 0.0469 ± 0.003 | 0.0517 ± 0.0033 | 998.5 ± 1.6 | 997.33 ± 1.6 | 43.38 ± 1.4
m1 = 0.00548 | – | – | – | 998.53 ± 1.6 | 997.36 ± 1.6 | –
m1 = 0.00602 | 0.0483 ± 0.0031 | 0.0535 ± 0.0035 | 0.0589 ± 0.0038 | 998.57 ± 1.6 | 997.39 ± 1.6 | 41.31 ± 1.3
m1 = 0.00698 | 0.0568 ± 0.0038 | 0.0632 ± 0.0043 | 0.0694 ± 0.0046 | 998.64 ± 1.6 | 997.46 ± 1.6 | 38.15 ± 1.2
m1 = 0.00753 | 0.0603 ± 0.0034 | 0.0671 ± 0.0038 | 0.0734 ± 0.0042 | 998.68 ± 1.6 | 997.5 ± 1.6 | 37.87 ± 1.2
m1 = 0.00905 | 0.0699 ± 0.0039 | 0.0779 ± 0.0044 | 0.0859 ± 0.005 | 998.78 ± 1.6 | 997.61 ± 1.6 | 32.2 ± 1.1
m1 = 0.01006 | 0.0754 ± 0.0039 | 0.0845 ± 0.0045 | 0.093 ± 0.0059 | 998.85 ± 1.6 | 997.68 ± 1.6 | 32.54 ± 1.1
m1 = 0.01266 | 0.0892 ± 0.0041 | 0.1 ± 0.0049 | 0.117 ± 0.0059 | 999.01 ± 1.6 | 997.84 ± 1.6 | 32.07 ± 1.1
m1 = 0.01513 | 0.0958 ± 0.0039 | 0.11 ± 0.0044 | – | 999.17 ± 1.6 | 998 ± 1.6 | 32.43 ± 1.1
m1 = 0.01771 | 0.103 ± 0.0041 | 0.117 ± 0.0046 | – | 999.33 ± 1.6 | 998.16 ± 1.6 | 31.44 ± 1
m1 = 0.01974 | 0.107 ± 0.0042 | 0.123 ± 0.0049 | – | 999.46 ± 1.6 | 998.29 ± 1.6 | 31.87 ± 1
m1 = 0.02301 | 0.116 ± 0.0048 | 0.132 ± 0.0054 | – | 999.66 ± 1.6 | 998.49 ± 1.6 | –
m1 = 0.02601 | 0.123 ± 0.0052 | 0.14 ± 0.0059 | – | 999.84 ± 1.6 | 998.67 ± 1.6 | 32.42 ± 1.1
